What all share (assay): Transient transfection (transactivation) assay in CV-1 cells, GAL4-PPAR LBD chimera, SPAP reporter
Format in all cases: cell-based

One experiment concerns the target T1, hPPAR gamma (Homo sapiens, UniProt P37231).
T1 construct: expressed in transfected cells; host or cells: CV-1 cells
T1 sequence (P37231 238-503 limits assumed): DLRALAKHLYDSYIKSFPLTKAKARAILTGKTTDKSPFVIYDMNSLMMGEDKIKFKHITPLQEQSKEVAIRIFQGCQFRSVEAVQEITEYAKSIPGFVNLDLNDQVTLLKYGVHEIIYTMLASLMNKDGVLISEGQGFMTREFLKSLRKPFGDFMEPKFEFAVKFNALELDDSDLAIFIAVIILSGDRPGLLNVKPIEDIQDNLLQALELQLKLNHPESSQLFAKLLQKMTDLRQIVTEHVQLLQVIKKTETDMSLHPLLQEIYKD
As to conditions: read-out: EC50 μM HPPARγ. The text has this:
Compounds were screened for functional potency in transient transfection assays in CV-1 cells for their ability to activate the PPAR subtypes (transactivation assay). A previously established chimeric receptor system was utilized to allow comparison of the relative transcriptional activity of the receptor subtypes on the same target gene and to prevent endogenous receptor activation from complicating the interpretation of results. […] The ligand binding domains for murine and human PPAR alpha, PPAR gamma, and PPAR delta were each fused to the yeast transcription factor GAL4 DNA binding domain. CV-1 cells were transiently transfected with expression vectors for the respective PPAR chimera along with a reporter construct containing five copies of the GAL4 DNA binding site driving expression of secreted placental alkaline phosphatase (SPAP) and beta-galactosidase. After 16 h, the medium was exchanged to DME medium supplemented with 10% delipidated fetal calf serum and the test compound at the appropriate concentration. After an additional 24 h, cell extracts were prepared and assayed for alkaline phosphatase and β-galactosidase activity.

The target of the next experiment is T2, hPPAR delta (Homo sapiens, UniProt Q03181).
T2 construct: expressed in transfected cells; host or cells: CV-1 cells
T2 sequence (Q03181 211-439 limits assumed): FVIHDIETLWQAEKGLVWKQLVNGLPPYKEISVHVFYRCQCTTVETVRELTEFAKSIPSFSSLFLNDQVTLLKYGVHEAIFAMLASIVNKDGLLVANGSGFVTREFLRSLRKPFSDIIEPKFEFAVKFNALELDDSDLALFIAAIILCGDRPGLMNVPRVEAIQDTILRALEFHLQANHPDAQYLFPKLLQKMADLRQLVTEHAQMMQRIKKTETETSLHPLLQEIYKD
The note with it: read-out: EC50 μM HPPARδ. An excerpt: (§1) Compounds were screened for functional potency in transient transfection assays in CV-1 cells for their ability to activate the PPAR subtypes (transactivation assay). A previously established chimeric receptor system was utilized to allow comparison of the relative transcriptional activity of the receptor subtypes on the same target gene and to prevent endogenous receptor activation from complicating the interpretation of results. See, for example, Lehmann, J. M.; Moore, L. B.; Smith-Oliver, T. A.; Wilkison, W. O.; Willson, T. M.; Kliewer, S. A., An antidiabetic thiazolidinedione is a high affinity ligand for peroxisome proliferator-activated receptor gamma (PPARgamma), J. Biol. Chem., 270, 12953-6 (1995). The ligand binding domains for murine and human PPAR alpha, PPAR gamma, and PPAR delta were each fused to the yeast transcription factor GAL4 DNA binding domain. CV-1 cells were transiently transfected with expression vectors for the respective PPAR chimera along with a reporter construct containing five copies of the GAL4 DNA binding site driving expression of secreted placental alkaline phosphatase (SPAP) and beta-galactosidase. After 16 h, the medium was exchanged to DME medium supplemented with 10% delipidated fetal calf serum and the test compound at the appropriate concentration. After an additional 24 h, cell extracts were prepared and assayed for alkaline phosphatase and β-galactosidase activity. Alkaline phosphatase activity was corrected for transfection efficiency using the beta-galactosidase activity as an internal standard (see, for example, Kliewer, S. A., et. al. Cell 83, 813-819 (1995)). Rosiglitazone (BRL 49653) was used as a positive control in the hPPAR gamma assay. The positive control in the hPPAR alpha assays was 2-4-[2-(3-[4-fluorophenyl]-1-heptylureido)ethyl]-phenoxy-(2-methyl propionic acid (WO 97/36579). The positive control for PPAR delta assays was 2-{2-methyl-4-[({4-methyl-2-{trifluoromethyl)phenyl]-1,3-thiazol-5-yl}methyl)sulfanyl]phenoxy}acetic acid (WO 01/00603). The positive control was (5-{4-[2-(Methyl-pyridin-2-yl-amino)-ethoxy]-benzyl}-thiazolidine-2,4-dione (J. Med. Chem. 1994, 37(23), 3977), for PPAR gamma.
(§2) Activities in three hPPAR subtypes are reported in the table and are expressed in micromolar.

The next experiment deals with T3, hPPAR alpha (Homo sapiens, UniProt Q07869).
T3 construct: expressed in transfected cells; host or cells: CV-1 cells
T3 sequence (Q07869 239-466 limits assumed): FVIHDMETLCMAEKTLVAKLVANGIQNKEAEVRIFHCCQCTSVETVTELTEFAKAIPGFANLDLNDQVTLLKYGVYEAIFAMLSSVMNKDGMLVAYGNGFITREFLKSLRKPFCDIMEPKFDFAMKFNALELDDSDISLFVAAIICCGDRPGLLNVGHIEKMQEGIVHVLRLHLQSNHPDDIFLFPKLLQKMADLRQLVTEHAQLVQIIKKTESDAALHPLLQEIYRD
The note with it: read-out: EC50 μM HPPARα.
Source text: as §1, §2

Counter-ions that a name gives are not always drawn.

Turning to `Cc1cc(CNC(=O)c2cc(-c3cccc(N4CCCC4)c3)nn2C)ccc1OC(C)(C)C(=O)O` [Example 23, 2-methyl-2-[(2-methyl-4-{[({1-methyl-3-[3-(1-pyrrolidinyl)phenyl]-1H-pyrazol 5-yl}carbonyl)amino]methyl}phenyl)oxy]propanoic acid], the values for the EC50 at hPPAR gamma, at hPPAR delta and at hPPAR alpha were 0.779 µM, 4.33 µM and 0.067 µM, respectively.

As for `Cc1cc(CNC(=O)c2cc(-c3ccc(C(C)(C)C)cc3)n(C)n2)cc(C)c1OC(C)(C)C(=O)O` [Example 25, 2-{4-[({[5-(4-tert-butylphenyl)-1-methyl-1H-pyrazol-3-yl]carbonyl}amino)methyl]-2,6-dimethylphenoxy}-2-methylpropanoic acid], the EC50 was 0.008 µM at hPPAR gamma, greater than 25 µM at hPPAR delta and 0.002 µM at hPPAR alpha.

As for `CCCCc1ccc(-c2cc(C(=O)NCc3ccc(OC(C)(C)C(=O)O)c(C)c3)nn2C)cc1` [Example 29, 2-((4-[({[5-(4-butylphenyl)-1-methyl-1H-pyrazol-3-yl]carbonyl}amino)methyl]-2-methylphenyl}oxy)-2-methylpropanoic acid], the EC50 is 0.014 µM on hPPAR gamma, greater than 25 µM at hPPAR delta and 0.029 µM at hPPAR alpha.

In the case of `Cc1cc(CNC(=O)c2cc(-c3ccc(-c4ccccc4C)cc3)n(C)n2)ccc1OC(C)(C)C(=O)O` [Example 31, 2-methyl-2-(2-methyl-4-[({[1-methyl-5-(2′-methylbiphenyl-4-yl)-1H-pyrazol-3-yl]carbonyl}amino)methyl]phenoxy}propanoic acid], the EC50 on hPPAR gamma was 0.026 µM; on hPPAR delta, greater than 25 µM; on hPPAR alpha, 0.093 µM.

`Cc1cc(CNC(=O)c2cc(-c3ccc(N4CCOCC4)cc3)nn2C)ccc1OC(C)(C)C(=O)O` [Example 39, 2-methyl-2-[(2-methyl-4-{[({1-methyl-3-[4-(4-morpholinyl)phenyl]-1H-pyrazol-5-yl}carbonyl)amino]methyl}phenyl)oxy]propanoic acid]: the EC50 at hPPAR gamma is 1.04 µM; on hPPAR delta, greater than 25 µM; at hPPAR alpha, 1.06 µM.

Take `Cc1cc(CNC(=O)c2cc(-c3cccc(N4CCCCC4)c3)n(C)n2)ccc1OC(C)(C)C(=O)O` [Example 40, 2-methyl-2-[(2-methyl-4-{[({1-methyl-5-[3-(1-piperidinyl)phenyl]-1H-pyrazol-3-yl}carbonyl)amino]methyl}phenyl)oxy]propanoic acid]: the EC50 was 0.187 µM on hPPAR gamma, 5.59 µM at hPPAR delta and 0.293 µM on hPPAR alpha.

In the case of `Cc1cc(CNC(=O)c2cc(-c3cccc(N4CCCC4)c3)n(C)n2)ccc1OC(C)(C)C(=O)O` [Example 41, 2-methyl-2-[(2-methyl-4-{[({1-methyl-5-[3-(1-pyrrolidinyl)phenyl]-1H-pyrazol-3-yl}carbonyl)amino]methyl}phenyl)oxy]propanoic acid], the EC50 at hPPAR gamma was 0.151 µM; on hPPAR delta, greater than 25 µM; on hPPAR alpha, 0.504 µM.

As for `Cc1cc(CNC(=O)c2cc(-c3cccc(N4CCCCC4)c3)nn2C)ccc1OC(C)(C)C(=O)O` [Example 42, 2-methyl-2-{2-methyl-4-[({[1-methyl-3-(3-piperidin-1-ylphenyl)-1H-pyrazol-5-yl]carbonyl}amino)methyl]phenoxy}propanoic acid], the EC50 at hPPAR gamma is 1.66 µM; on hPPAR delta, greater than 25 µM; at hPPAR alpha, 0.293 µM.

For the compound `Cc1cc(CNC(=O)Cc2cc(-c3ccc(C(C)(C)C)cc3)nn2C)ccc1OC(C)(C)C(=O)O` [Example 43, 2-[(4-{[({3-[4-(1,1-dimethylethyl)phenyl]-1-methyl-1H-pyrazol-5-yl}acetyl)amino]methyl}-2-methylphenyl)oxy]-2-methylpropanoic acid], the concentration giving a half-maximal response (EC50) is 0.138 µM at hPPAR gamma, greater than 25 µM at hPPAR delta and 0.257 µM on hPPAR alpha.

Turning to `Cc1cc(CNC(=O)Cc2cc(-c3ccc(C(C)(C)C)cc3)n(C)n2)ccc1OC(C)(C)C(=O)O` [Example 44, 2-[(4-{[({5-[4-(1,1-dimethylethyl)phenyl]-1-methyl-1H-pyrazol-3-yl}acetyl)amino]methyl}-2-methylphenyl)oxy]-2-methylpropanoic acid], the EC50 is 0.006 µM on hPPAR gamma, greater than 25 µM on hPPAR delta and 1.3 µM at hPPAR alpha.

On to `Cc1cc(CNC(=O)c2cc(-c3ccc(N4CCCCC4)cc3)nn2C)ccc1OC(C)(C)C(=O)O` [Example 45], for which the EC50 was 0.049 µM at hPPAR gamma, greater than 25 µM on hPPAR delta and 0.836 µM at hPPAR alpha.

As for `Cc1cc(CNC(=O)c2cc(Cc3ccc(C(C)(C)C)cc3)nn2C)ccc1OC(C)(C)C(=O)O` [Example 46, 2-{[4-({[(3-{[4-(1,1-dimethylethyl)phenyl]methyl}-1-methyl-1H-pyrazol-5-yl)carbonyl]amino}methyl)-2-methylphenyl]oxy}-2-methylpropanoic acid], the 50% effective concentration (EC50) is 0.353 µM on hPPAR gamma, greater than 25 µM on hPPAR delta and 0.294 µM on hPPAR alpha.

With `C=CCn1nc(-c2ccc(C(C)(C)C)cc2)cc1C(=O)NCc1ccc(OC(C)(C)C(=O)O)c(C)c1` [Example 47, 2-({4-[({[3-[4-(1,1-dimethylethyl)phenyl]-1-(2-propen-1-yl)-1H-pyrazol-5-yl]carbonyl}amino)methyl]-2-methylphenyl}oxy)-2-methylpropanoic acid], the EC50 at hPPAR gamma stood at 0.059 µM; on hPPAR delta, 1.15 µM; on hPPAR alpha, 0.044 µM.

On to `Cc1cc(CNC(=O)c2cc(-c3ccc(C(C)(C)C)cc3)n(Cc3ccccc3)n2)ccc1OC(C)(C)C(=O)O` [Example 50, 2-({4-[({[5-[4-(1,1-dimethylethyl)phenyl]-1-(phenylmethyl)-1H-pyrazol-3-yl]carbonyl}amino)methyl]-2-methylphenyl}oxy)-2-methylpropanoic acid], for which the EC50 on hPPAR gamma was 1.7 µM; on hPPAR delta, greater than 25 µM; at hPPAR alpha, 0.204 µM.

Turning to `Cc1ccc(CNC(=O)c2cc(-c3ccc(C(C)(C)C)cc3)nn2CCc2ccccc2)cc1OC(C)(C)C(=O)O` [Example 51, 2-({5-[({[3-[4-(1,1-dimethylethyl)phenyl]-1-(2-phenylethyl)-1H-pyrazol-5-yl]carbonyl}amino)methyl]-2-methylphenyl}oxy)-2-methylpropanoic acid], the EC50 on hPPAR gamma is 0.14 µM; at hPPAR delta, greater than 25 µM; at hPPAR alpha, 0.3 µM.

In the case of `Cc1cc(CNC(=O)c2cc(-c3ccc(C(C)(C)C)cc3)n(CCN3CCOCC3)n2)ccc1OC(C)(C)C(=O)O` [Example 54, 2-[(4-{[({5-[4-(1,1-dimethylethyl)phenyl]-1-[2-(4-morpholinyl)ethyl]-1H-pyrazol-3-yl}carbonyl)amino]methyl}-2-methylphenyl)oxy]-2-methyl propanoic acid hydrochloride], the EC50 on hPPAR gamma was greater than 25 µM; on hPPAR delta it was greater than 25 µM; at hPPAR alpha it was 0.571 µM.
